Experiment: gradient 5% acetonitrile 3 min, to 50% in 2 min, to 85% in 15 min, held 3 min, 100 µL/min
Conditions: column: Zorbax Extend-C18 2.1 x 50 mm; eluents: water / acetonitrile, 0.1% formic acid
Outline: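 Retention times come from adduct peaks that were picked computationally and then checked by hand. The standards, pure and pooled in mixtures of ~100 molecules, were run on a Zorbax Extend-C18 column (2.1 × 50 mm, 1.8 μm) at 100 μL/min with water and acetonitrile, each with 0.1% formic acid. Detection was by quadrupole time-of-flight mass spectrometry in positive and negative ionization mode, with a dead volume of 40 μL and a dwell volume of 900 μL.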

Cn1c(=O)c(N2CCC(NC(=O)NCCc3ccccc3)CC2)nc2ccccc21 gave an RP-LC retention time of 857 s.
With O=C(Cn1nc2c(N3CCCCCC3)nccn2c1=O)Nc1ccc(F)c(Cl)c1 the RP-LC retention time was 786 s.
Work on CN(C)CCNC(=O)C1CCN(c2nc3ccc(-c4ccccc4)nc3s2)CC1 yielded an RP-LC retention time of 667 s.
With COc1cccc(N2CCN(c3ccc(S(=O)(=O)C(C)C)nn3)CC2)c1 the RP-LC retention time was 847 s.
For CCCCOC(=O)c1ccc(NC(=O)c2cccn(Cc3cccc([N+](=O)[O-])c3)c2=O)cc1, the RP-LC retention time was 1140 s.
CC1CCN(c2ncc3c(n2)CCC(C(=O)NC(C)c2ccccn2)C3)CC1 (centres undefined) showed an RP-LC retention time of 614 s.
CCNc1cc(N2CCCC(CCC(=O)NCc3ccccc3C)C2)ncn1 (centres undefined) gave an RP-LC retention time of 672 s.
With Cc1cccc(N2CCN(C(=O)CN3CCN(Cc4ccccc4)C3=O)CC2)c1 the RP-LC retention time was 853 s.
Work on Cc1ccc(-n2nc(N3CCN(C(=O)Nc4ccc(Cl)cc4)CC3)ccc2=O)cc1 yielded an RP-LC retention time of 894 s.
CCN1C(=O)c2cc(S(=O)(=O)NCc3ccccc3C)ccc2Oc2cccnc21 showed an RP-LC retention time of 1020 s.
O=C(Nc1ccc(F)cc1)C1CC(=O)N(CCc2c[nH]c3ccc(Cl)cc23)C1 (centres undefined) showed an RP-LC retention time of 871 s.
In the case of Cc1nc(-n2cccc2)sc1C(=O)NCCn1nc(-c2ccco2)ccc1=O, the RP-LC retention time is reported as 710 s.
Work on O=C(Nc1ccc2c(c1)OCCO2)NC1CCN(c2ccc(F)cc2)C1=O (centres undefined) yielded an RP-LC retention time of 762 s.
CCCCn1nc2c(S(=O)(=O)N3CCN(c4ccc(F)cc4)CC3)cccn2c1=O showed an RP-LC retention time of 951 s.
With COc1cccc(C(=O)N2CCCn3nc(-c4cccs4)cc3C2)c1OC the RP-LC retention time was 798 s.
For CN(CCC#N)c1ccc(NC(=O)c2ccc(Br)cc2)cc1C(=O)O, the RP-LC retention time was 740 s.
O=C(NCc1ccc(F)cc1F)C1CCCN(c2cn[nH]c(=O)c2)C1 (centres undefined) showed an RP-LC retention time of 660 s.
In the case of CCn1c(C(=O)N2CCOCC2)cc2c(-c3cccs3)nn(-c3ccccc3)c21, the RP-LC retention time is reported as 944 s.
O=C(NCc1ccc(F)cc1Cl)c1cn2ccccc2n1 gave an RP-LC retention time of 708 s.
Cc1cccc(S(=O)(=O)N2CCCC(Cn3c(C)nc4cccnc43)C2)c1 (centres undefined) showed an RP-LC retention time of 821 s.
For CN(C)c1ccc(C(=O)N2CCN(c3cc(-c4ccc(Cl)cc4)[nH]n3)CC2)cc1, the RP-LC retention time was 865 s.
Work on Cc1ccc(-c2noc(Cn3c(=O)n(CCc4ccccc4)c(=O)c4sccc43)n2)cc1 yielded an RP-LC retention time of 1170 s.
For Cc1noc(-c2ccc(NC(=O)C3CC(=O)N(c4ccccc4)C3)cc2)n1 (centres undefined), the RP-LC retention time was 727 s.
Work on CCOC(=O)c1c(S(=O)(=O)N2CCC(C(=O)N3CCc4ccccc4C3)CC2)c(C)n(C)c1C yielded an RP-LC retention time of 872 s.
CCn1cc(C)c(C(=O)O)c1CC(=O)Nc1cc(C)ccc1C gave an RP-LC retention time of 866 s.
COc1ccc(NC(=O)N2CCCC2c2nc(-c3ccccc3)no2)cc1 (centres undefined) showed an RP-LC retention time of 876 s.
COc1ccccc1-c1nnc(-c2ccc(OC)c(S(=O)(=O)N(C)C)c2)o1 gave an RP-LC retention time of 798 s.
With COc1ccc(-c2ncc3c(=O)n(CC(=O)Nc4ccc(OC)c(OC)c4)cnc3n2)cc1 the RP-LC retention time was 750 s.
Compound Cc1cc(NC(=O)C2CCCN(c3nc4ccsc4c(=O)n3Cc3ccc(F)cc3)C2)ccc1F (centres undefined) has an RP-LC retention time of 1050 s.
For Cc1ccc(-c2noc(-c3nc(-c4ccncc4)no3)n2)cc1, the RP-LC retention time was 1090 s.
With CCC(C)OC(=O)C1=C(C)NC(=O)NC1c1ccc(O)c(OC)c1 (centres undefined) the RP-LC retention time was 677 s.
CCOC(=O)N1CCN(c2ncc(C(=O)Nc3ccc(OCC)cc3)c(N)n2)CC1 gave an RP-LC retention time of 718 s.
Work on CCCc1noc(-c2ccnc(-n3cnc(C(=O)NC4CCCC4)c3)c2)n1 yielded an RP-LC retention time of 952 s.
For O=C(Nc1ccccc1)N1CCC(N2CCN(Cc3cccc(F)c3)C(=O)C2=O)CC1, the RP-LC retention time was 691 s.
With Cn1cnc2c(C(=O)N3CCCC3)nn(-c3ccc(Cl)cc3)c2c1=O the RP-LC retention time was 758 s.
COc1ccccc1NC(=O)Nc1ccc2c(c1)N(S(=O)(=O)c1cccs1)CCC2 showed an RP-LC retention time of 967 s.
Cc1nc(-c2cc3ccccc3nc2N2CCN(c3ccccc3F)CC2)no1 showed an RP-LC retention time of 711 s.
With O=C(NC1CCCCCC1)C1CCN(Cc2cc3ccccc3n2Cc2ccccc2Cl)CC1 the RP-LC retention time was 899 s.
Work on Cc1cc(=O)n(CC(=O)Nc2ccc(Br)cc2)c(N2CCc3ccccc3C2)n1 yielded an RP-LC retention time of 885 s.
CCOC(=O)c1[nH]c(C)c(CN(Cc2ccco2)C(=O)Nc2ccccc2F)c1C gave an RP-LC retention time of 976 s.
In the case of CCn1c(SC)nnc1-c1nn(C)c2c1CN(C(=O)C1CCCCC1)CC2, the RP-LC retention time is reported as 815 s.
In the case of CC(C)N1CCn2c(nc3cc(C(=O)NCc4ccccc4Br)ccc32)C1=O, the RP-LC retention time is reported as 731 s.
CCc1ccc(-n2ncc3c(=O)n(Cc4nc(-c5ccc(C)c(C)c5)no4)cnc32)cc1 showed an RP-LC retention time of 1300 s.
CCN(CC)S(=O)(=O)c1ccc2c(c1)N(CC(=O)N1CCOCC1)C(=O)C1CCCCN21 (centres undefined) gave an RP-LC retention time of 777 s.
